Experimental data from patent US10087156B2, “Methods and compositions related to retinoid receptor-selective pathway” (Sanford Burnham Prebys Medical Discovery Institute, priority 2010, dated 2018).

Columns and labels:
HepG2 liver cancer cells = assay: PARP cleavage and caspase-8 activation with TNFα by immunoblotting; type: cell-based; settings: HepG2 cells, SR11237 1 μM, 1 hr pretreatment
Protocol: ZR-75-1 cells were treated with TNFα and/or Sulindac (75 μM) or K-80003 (50 μM) for 6 hr and analyzed by immunoblotting.
HepG2 cells cultured in medium with 1% FBS were treated with SR11237 (1 μM) for 1 hr, then TNFα (10 ng/ml) and/or Sulindac (75 μM) for 4 hr, and analyzed by immunoblotting. HepG2 cells transfected with control or RXRα siRNA were treated with TNFα and/or Sulindac and analyzed by immunoblotting.

COX = settings: Haanen, 2001; cited from earlier work

Structure (SMILES) | suppression of the apoptotic effect of Sulindac/TNFα combination (HepG2 liver cancer cells) | COX-inhibiting activity (COX)
CC1(C)CCC(C)(C)c2cc(C3(c4ccc(C(=O)O)cc4)OCCO3)ccc21 [SR11237] | partially suppressed | 
CC1=C(CC(=O)O)c2cc(F)ccc2/C1=C/c1ccc([S+](C)[O-])cc1 (stereo not drawn) [sulindac sulfoxide] |  | no COX-inhibiting activity
CC1=C(CC(=O)O)c2cc(F)ccc2/C1=C\c1ccc(S(C)(=O)=O)cc1 [sulindac sulfone] |  | no COX-inhibiting activity
